Assay results: EP0676201B1, “Use of a riminophenazine for treating MDR resistance” (priority 1994, dated 1995)
Converted amounts (≈) assume the structure as drawn. Read-outs that look alike come from different tables or passages of the source.

How the values were obtained:
H69/LX4 [1] = test: [14C]-vinblastine accumulation in MDR cell line (Example 2); assay type: cell-based, human; conditions: 1 hour pretreatment; 250 µg/mℓ [14C]-vinblastine for 30 minutes
Method: The effect of riminophenazines on the accumulation of [^14C]-vinblastine was investigated. For these experiments, both of the above cell lines (H69/LX4 and H69/P) were prepared as described by Coley et al (Biochem. Pharmacal 38, 4467-4475 (1989)). After a 1 hour pretreatment with the MDR reversal agents, cells (1 x 10^6/mℓ) were exposed to 250 µg/mℓ [^14C]-vinblastine (1 µCi specific activity) for 30 minutes. […] The results are illustrated in Figure 3 of the accompanying drawings.

K562/MMB = test: MTT assay, 7-day exposure to riminophenazines alone or with fixed doxorubicin or vinblastine (Example 4); assay type: cell-based; conditions: Homo sapiens, K562, 168 h
Source text: A third cell line (562/MMB) used was a MDR leukemia cell line selected in vitro by progressive exposure to increasing concentrations of vinblastine in order to increase P-glycoprotein expression. […] This cell line expresses high levels of P-glycoprotein as determined by flowcytometry using the monoclonal antibody (MRK 16) against this molecule.
The effects were examined of a 7-day exposure of selected compounds on the sensitivity of the cell line (K562/MMB) to the standard chemotherapeutic agents doxorubicin and vinblastine, using the MTT assay.
The cells were seeded at 1 x 10^4 cells per well in 96 well microlitre plates in a volume of 200 µl of RPMI 1640 medium containing 10 % fetal calf serum and incubated with doxorubicin (12.5 ng/ml) or vinblastine (3 ng/ml). The amounts of MDR modulators used were 0.03, 0.06, 0.125, 0.5, 1.0 and 2.0 µg/ml.
After incubation at 37 °C for 7 days, 20 µl MTT (i.e. 3-[4,5-dimethylthiazol-2-yl]2,5-diphenyl-tetrazolium bromide) at 5 mg/ml was added to each well and the plates incubated for a further 4 hours. The cells were washed with phosphate buffered saline and the intracellular formazan crystals solubilized with dimethylsulphoxide, and the absorbency measured spectrophotometrically at a test wavelength of 540 nm and a reference wavelength of 620 nm.

H69/LX4 [2] = test: MTT assay, 7-day exposure to riminophenazines alone or with fixed doxorubicin or vinblastine (Example 3); conditions: Homo sapiens, 168 h, read-out: cytotoxic activity: concentrations at which cytotoxic
Method: The effects were examined of a 7-day exposure of selected compounds on the sensitivity of the cell line (H69/P) and the resistance cell line (H69/LX4) to the standard chemotherapeutic agents doxorubicin and vinblastine, using the MTT assay.
After incubation at 37°C for 7 days, 20 µℓ MTT (ie 3-[4,5-dimethylthiazol-2-yl]-2,5-diphenyl-tetrazolium bromide) at 5 mg/ml was added to each well and the plates incubated for a further 4 hours. The cells were washed with phosphate buffered saline and the intracellular formazan crystals solubilized with dimethylsulphoxide, and the absorbence measured spectrophotometrically at a test wavelength of 540 nm and a reference wavelength of 620 nm. The mean percentage inhibition ± SEM of four experiments using the relevant controls was taken.

H69/P = test: MTT assay, 7-day exposure: sensitivity of parent cells to chemotherapeutic agents with or without MDR inhibitor (Example 1); assay type: cell-based, human; conditions: for fold sensitivity compared with the chemotherapeutic agent without the MDR inhibitor, B669 / fold sensitivity compared with the chemotherapeutic agent without the MDR inhibitor, Clofazimine (B663) / fold sensitivity compared with the chemotherapeutic agent without the MDR inhibitor, CsA: value in parenthesis; for fold sensitivity compared with the chemotherapeutic agent without the MDR inhibitor, CsA: with CsA 5 µg/ml; for IC50: Homo sapiens, 168 h
Source text: (§1) A further test using no MDR inhibitor was used as a standard.

H69/LX4 [3] = test: MTT assay, 7-day exposure: sensitivity of resistant (MDR) cells to chemotherapeutic agents with or without MDR inhibitor (Example 1); assay type: cell-based; conditions: Homo sapiens, 168 h
Source text: as §1
The cell lines used were human small cell lung cancer cell line HP69/P and a multi-drug resistant (MDR) sub-line H69/LX4, both of which were supplied by the MRC Clinical Oncology and Radiotherapeutics Unit, Hills Road, Cambridge, England. The maintenance of the cell lines and drug response assays was done as described by Twentyman et al in British Journal of Cancer Volume 65 pages 335-340. The H69/LX4 line was originally described by Twentyman et al in British Journal of Cancer Volume 53, pages 529-637 (1986).
The data in parenthesis represents fold sensitivity compared with the chemotherapeutic agent without the MDR inhibitor.

[4] = in the presence of doxorubicin (12 ng/ml), read-out: IC 50 of riminophenazine, Doxorubicin
[5] = riminophenazine alone, mean of 2 experiments, read-out: IC 50 of riminophenazine, None
[6] = in the presence of vinblastine (3 ng/ml), read-out: IC 50 of riminophenazine, Vinblastine
[7] = H69/P, with Clofazimine 1 µg/ml
[8] = read-out: IC50 of chemotherapeutic agent, MDR INHIBITOR CsA
[9] = H69/P, no MDR inhibitor, 7 day exposure, mean of 2 - 4 experiments, read-out: IC50 of chemotherapeutic agent, MDR INHIBITOR None
[10] = H69/P, with B669 0.5 µg/ml, 7 day exposure, read-out: IC50 of chemotherapeutic agent, MDR INHIBITOR B669
[11] = H69/P, with Clofazimine 1 µg/ml, 7 day exposure, read-out: IC50 of chemotherapeutic agent, MDR INHIBITOR Clofazimine (B663)
[12] = H69/LX4, no MDR inhibitor, 7 day exposure, mean of 2 - 4 experiments, read-out: IC50 of chemotherapeutic agent, MDR INHIBITOR None
[13] = H69/LX4, with B669 0.5 µg/ml, 7 day exposure, read-out: IC50 of chemotherapeutic agent, MDR INHIBITOR B669
[14] = H69/LX4, with Clofazimine 1 µg/ml, 7 day exposure, read-out: IC50 of chemotherapeutic agent, MDR INHIBITOR Clofazimine (B663)

SMILES | vinblastine accumulation in the MDR cell line (H69/LX4) (H69/LX4 [1]) | IC50 (K562/MMB; [4]) | IC50 (K562/MMB; [5]) | IC50 (K562/MMB; [6]) | MCC (H69/LX4 [2]) | fold sensitivity compared with the chemotherapeutic agent without the MDR inhibitor, B669 (H69/P; H69/P, with B669 0.5 µg/ml) | fold sensitivity compared with the chemotherapeutic agent without the MDR inhibitor, Clofazimine (B663) (H69/P; [7]) | fold sensitivity compared with the chemotherapeutic agent without the MDR inhibitor, CsA (H69/P; H69/P) | IC50 (H69/P; [8]) | IC50 (H69/P; [9]) | IC50 (H69/P; [10]) | IC50 (H69/P; [11]) | IC50 (H69/LX4 [3]; [8]) | IC50 (H69/LX4 [3]; [12]) | IC50 (H69/LX4 [3]; [13]) | IC50 (H69/LX4 [3]; [14])
c1ccc(Nc2cc3nc4ccccc4n(-c4ccccc4)c-3cc2=NC2CCCCC2)cc1 [Compound B669] | significant enhancement | 69 ng/mL | 139 ng/mL (≈ 0.313 µM) | – | – | – | – | – | – | – | – | – | – | – | – | –
CC(C)N=c1cc2n(-c3ccc(Cl)cc3)c3ccccc3nc-2cc1Nc1ccc(Cl)cc1 [Compound B663, N,5-bis-(4-chlorophenyl)-3,5-dihydro-3-[(1-methylethyl)imino]-2-phenazinamine] | significant enhancement | 135 ng/mL | 225 ng/mL (≈ 0.475 µM) | < 50 ng/mL | – | – | – | – | – | – | – | – | – | – | – | –
CC1(C)CC(N=c2cc3n(-c4cc(Cl)c(Cl)c(Cl)c4)c4ccccc4nc-3cc2Nc2cc(Cl)c(Cl)c(Cl)c2)CC(C)(C)N1 [Compound B4169, N,5-bis(3,4,5-trichlorophenyl)-3,5-dihydro-3[(2',2',6',6'-tetramethyl-4-piperidyl)-imino]-2-phenazinamine] | – | 969 ng/mL | 2860 ng/mL (≈ 4.04 µM) | 116 ng/mL | > 12.5 µg/mL | – | – | – | – | – | – | – | – | – | – | –
COc1cc([C@@H]2c3cc4c(cc3[C@@H](O[C@@H]3O[C@@H]5CO[C@@H](C)O[C@H]5[C@H](O)[C@H]3O)[C@H]3COC(=O)[C@H]23)OCO4)cc(OC)c1O [Etoposide] | – | – | – | – | – | 1.2 fold | 0.6 fold | 0.8 fold | 0.09 ng/mL (≈ 0.000153 µM) | 0.7 ng/mL (≈ 0.00119 µM) | 0.06 ng/mL (≈ 0.000102 µM) | 0.11 ng/mL (≈ 0.000187 µM) | 0.08 ng/mL (≈ 0.000136 µM) | 13 ng/mL (≈ 0.0221 µM) | 0.09 ng/mL (≈ 0.000153 µM) | 2.6 ng/mL (≈ 0.00442 µM)
CN(Cc1cnc2nc(N)nc(N)c2n1)c1ccc(C(=O)N[C@@H](CCC(=O)O)C(=O)O)cc1 [Methotrexate] | – | – | – | – | – | 1.0 fold | 0.9 fold | 1.5 fold | 2400 ng/mL (≈ 5.28 µM) | 3500 ng/mL (≈ 7.7 µM) | 3400 ng/mL (≈ 7.48 µM) | 3700 ng/mL (≈ 8.14 µM) | 4600 ng/mL (≈ 10.1 µM) | 3200 ng/mL (≈ 7.04 µM) | 3500 ng/mL (≈ 7.7 µM) | 4400 ng/mL (≈ 9.68 µM)
